pEC50: −log10 of the molar value. Where two headings read alike, the source gives them in different places. Starred links: 1 amine or outer side, 2 acyl side, 3 side chain; linkers in the order of their positions; H or OH if unused. Non-standard residues stand in square brackets, D forms with d. Residues, ends and D or L forms follow the SMILES beside them. ξ: configuration not given here. MeBmt = C/C=C/C[C@@H](C)[C@@H](O)[C@H](NC)C(=O)O; X1 = CCN(CC)CCCS[C@H](C(=O)[*:2])N(C)[*:1]; X2 = CCN(CC)CCS[C@H](C(=O)[*:2])N(C)[*:1]; NMeIle(3ξ) = CCC(C)[C@H](NC)C(=O)O; NMeL = CN[C@@H](CC(C)C)C(=O)O; NMeV = CN[C@H](C(=O)O)C(C)C; Abu = CC[C@H](N)C(=O)O
Columns and labels:
HIV-1IIIB = test: Anti-HIV cytoprotection assay, acute infection model in CEM-SS cells (MTS endpoint); assay type: cell-based; details: HIV-1IIIB in CEM-SS cells, 6-day incubation, read-out: Antiviral activity EC50
Method: Anti-HIV activity of cyclosporine derivatives were evaluated by cytoprotection assay in an acute infection model using CEM-SS cells and either HIV-1IIIB or HIV-1 RF. Antiviral activity was determined as a reduction in virus-caused cytopathic effects when compounds prevent virus replication. Cytoprotection and compound cytotoxicity were evaluated using the tetrazollium dye MTS (Promega) to calculate cell viability following virus infection after 6-day incubation (Zhou G., et al., 2011, J. Med. Chem. 27, 7220-31; which is incorporated herein by reference).

[1] = Stability testing: epimerization of cyclosporin derivatives in methanol, monitored by HPLC; assay type: physicochemical; details: Table 9, MeOH at 50° C.-58° C.
[2] = tested on: HCV replicon in cell line ET (luc-ubi-neo/ET), Huh7 human hepatoma cell line; test: HCV subgenomic replicon assay (luciferase end point); assay type: cell-based; details: read-out: Antiviral activity EC50
[3] = Hepatitis C virus, Huh-7, Table 13, HCV replicon

C/C=C/C[C@@H](C)[C@@H](O)[C@H]1C(=O)N[C@@H](CC)C(=O)N(C)[C@H](CSCCN(C)C)C(=O)N(C)[C@@H](CC(C)(C)O)C(=O)N[C@@H](C(C)C)C(=O)N(C)[C@@H](CC(C)C)C(=O)N[C@@H](C)C(=O)N[C@H](C)C(=O)N(C)[C@@H](CC(C)C)C(=O)N(C)[C@@H](CC(C)C)C(=O)N(C)[C@@H](C(C)C)C(=O)N1C (single isomer, unassigned; isomer b)
pEC50 (HIV-1IIIB): 6.93

CC=CCC(C)C(O)C1C(=O)NC(CC)C(=O)N(C)C(CSCCC(CO)CCC)C(=O)N(C)C(CC(C)(C)O)C(=O)NC(C(C)C)C(=O)N(C)C(CC(C)C)C(=O)NC(C)C(=O)NC(C)C(=O)N(C)C(CC(C)C)C(=O)N(C)C(CC(C)C)C(=O)N(C)C(C(C)C)C(=O)N1C [Example 105, [(S)-((3-(R)-(Hydroxymethyl)hexyl)thio)methyl-Sar]-3-[(γ-hydroxy)-N-MeLeu]-4-cyclosporin]
Epimerization % after 168 hours [1]: 0%

(S)-2-(N,N-Diethylamino)ethylthio-Sar]-3-[N-MeIle]-4-cyclosporin
pEC50 ([2]; Table 10, HCV replicon): 5.73

C/C=C/C[C@@H](C)[C@@H](O)[C@H]1C(=O)N[C@@H](CC)C(=O)N(C)[C@H](CSCCN(CC)CC)C(=O)N(C)[C@@H](CC(C)(C)O)C(=O)N[C@@H](C(C)C)C(=O)N(C)[C@@H](CC(C)C)C(=O)N[C@@H](C)C(=O)N[C@H](C)C(=O)N(C)[C@@H](CC(C)C)C(=O)N(C)[C@@H](CC(C)C)C(=O)N(C)[C@@H](C(C)C)C(=O)N1C (single isomer, unassigned) [Example 32, isomer B]
Epimerization % after 168 hours [1]: 0%

C/C=C/C[C@@H](C)[C@@H](O)[C@H]1C(=O)N[C@@H](CC)C(=O)N(C)[C@H](CSCCN(C)C)C(=O)N(C)[C@@H](CC(C)(C)O)C(=O)N[C@@H](C(C)C)C(=O)N(C)[C@@H](CC(C)C)C(=O)N[C@@H](C)C(=O)N[C@H](C)C(=O)N(C)[C@@H](CC(C)C)C(=O)N(C)[C@@H](CC(C)C)C(=O)N(C)[C@@H](C(C)C)C(=O)N1C (single isomer, unassigned) [Example 31, isomer B]
Epimerization % after 168 hours [1]: 0%

C/C=C/C[C@@H](C)[C@@H](O)[C@H]1C(=O)N[C@@H](CC)C(=O)N(C)[C@H](SCCCN(CC)CC)C(=O)N(C)[C@@H](C(C)C)C(=O)N[C@@H](C(C)C)C(=O)N(C)[C@@H](CC(C)C)C(=O)N[C@@H](C)C(=O)N[C@H](C)C(=O)N(C)[C@@H](CC(C)C)C(=O)N(C)[C@@H](CC(C)C)C(=O)N(C)[C@@H](C(C)C)C(=O)N1C [[(R)-3-(N,N-Diethylamino)propylthio-Sar]-3-[N-MeVal]-4-cyclosporin] (cyclo(A[dA][NMeL][NMeL][NMeV][MeBmt][Abu][X1][NMeV]V[NMeL]))
pEC50 [2, 3]: 7.15

C/C=C/C[C@@H](C)[C@@H](O)[C@H]1C(=O)N[C@@H](CC)C(=O)N(C)[C@H](SCCCN(CC)CC)C(=O)N(C)[C@@H](C(C)CC)C(=O)N[C@@H](C(C)C)C(=O)N(C)[C@@H](CC(C)C)C(=O)N[C@@H](C)C(=O)N[C@H](C)C(=O)N(C)[C@@H](CC(C)C)C(=O)N(C)[C@@H](CC(C)C)C(=O)N(C)[C@@H](C(C)C)C(=O)N1C (stereo partly drawn) [[(R)-3-(N,N-Diethylamino)propylthio-Sar]-3-[NMeIle]-4-cyclosporin] (cyclo(A[dA][NMeL][NMeL][NMeV][MeBmt][Abu][X1][NMeIle(3ξ)]V[NMeL]))
pEC50 [2, 3]: 7.10

C/C=C/C[C@@H](C)[C@@H](O)[C@H]1C(=O)N[C@@H](CC)C(=O)N(C)[C@H](SCCCN2CCOCC2)C(=O)N(C)[C@@H](CC(C)(C)OC)C(=O)N[C@@H](C(C)C)C(=O)N(C)[C@@H](CC(C)C)C(=O)N[C@@H](C)C(=O)N[C@H](C)C(=O)N(C)[C@@H](CC(C)C)C(=O)N(C)[C@@H](CC(C)C)C(=O)N(C)[C@@H](C(C)C)C(=O)N1C [[(R)-3-(N-Morpholino)propylthio-Sar]-3-[(γ-methoxy)-NMeLeu]-4-cyclosporin]
pEC50 ([2]; Hepatitis C virus, Huh-7, Table 11, HCV replicon): 7.22

C/C=C/C[C@@H](C)[C@@H](O)[C@H]1C(=O)N[C@@H](CC)C(=O)N(C)[C@H](SCCN(CC)CC)C(=O)N(C)[C@@H](C(C)CC)C(=O)N[C@@H](C(C)C)C(=O)N(C)[C@@H](CC(C)C)C(=O)N[C@@H](C)C(=O)N[C@H](C)C(=O)N(C)[C@@H](CC(C)C)C(=O)N(C)[C@@H](CC(C)C)C(=O)N(C)[C@@H](C(C)C)C(=O)N1C (stereo partly drawn) [[(R)-2-(N,N-Diethylamino)ethylthio-Sar]-3-[NMeIle]-4-cyclosporin] (cyclo(A[dA][NMeL][NMeL][NMeV][MeBmt][Abu][X2][NMeIle(3ξ)]V[NMeL]))
pEC50 ([2]; Hepatitis C virus, Huh-7, Table 10, HCV replicon): 7.40

— US20160039879A1, “NOVEL CYCLOSPORIN DERIVATIVES AND USES THEREOF” (S&T Global Inc., priority 2013, published 2016)
